Results on 2 molecules are retold here after ChEMBL document CHEMBL1201862, “PubChem BioAssay data set” (2004).

Type in all cases: functional
In test [1] the target is T1, Sentrin-specific protease 7 (Homo sapiens, UniProt Q9BQF6).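 Also: Luminescence-based dose-response confirmation of ultra-high-throughput screening hits, measuring inhibition of SENP7.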
T1 sequence (Q9BQF6 whole entry): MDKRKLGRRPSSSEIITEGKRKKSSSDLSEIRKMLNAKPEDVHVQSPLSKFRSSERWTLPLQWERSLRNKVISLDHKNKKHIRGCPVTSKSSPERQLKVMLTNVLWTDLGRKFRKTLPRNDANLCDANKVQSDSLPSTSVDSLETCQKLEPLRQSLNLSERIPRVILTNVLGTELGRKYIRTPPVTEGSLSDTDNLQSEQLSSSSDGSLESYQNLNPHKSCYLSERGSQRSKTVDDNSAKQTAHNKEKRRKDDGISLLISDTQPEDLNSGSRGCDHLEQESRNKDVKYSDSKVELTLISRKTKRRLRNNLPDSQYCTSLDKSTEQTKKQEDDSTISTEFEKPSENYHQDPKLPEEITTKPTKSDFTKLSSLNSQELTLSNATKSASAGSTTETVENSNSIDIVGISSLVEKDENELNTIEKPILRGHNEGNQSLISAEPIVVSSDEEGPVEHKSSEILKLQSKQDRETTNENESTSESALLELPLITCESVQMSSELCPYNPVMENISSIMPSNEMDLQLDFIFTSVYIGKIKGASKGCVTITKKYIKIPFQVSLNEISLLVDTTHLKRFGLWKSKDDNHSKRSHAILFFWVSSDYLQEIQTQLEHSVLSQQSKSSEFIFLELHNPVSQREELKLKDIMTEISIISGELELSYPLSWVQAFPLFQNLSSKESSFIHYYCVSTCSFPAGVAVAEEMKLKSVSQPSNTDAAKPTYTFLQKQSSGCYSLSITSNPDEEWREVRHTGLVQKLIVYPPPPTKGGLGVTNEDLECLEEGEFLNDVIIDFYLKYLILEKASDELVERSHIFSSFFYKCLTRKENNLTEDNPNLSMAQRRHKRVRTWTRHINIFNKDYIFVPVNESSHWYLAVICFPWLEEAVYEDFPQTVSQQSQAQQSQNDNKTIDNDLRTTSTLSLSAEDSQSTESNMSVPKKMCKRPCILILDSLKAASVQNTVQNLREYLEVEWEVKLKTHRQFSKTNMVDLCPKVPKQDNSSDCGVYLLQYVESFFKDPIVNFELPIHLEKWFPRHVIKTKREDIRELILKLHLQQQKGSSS

Test [2] addresses Dual specificity mitogen-activated protein kinase kinase 1 (Homo sapiens, UniProt Q02750). Nature of the test: Navigating the Kinome. Panel member name: MAP2K1.
The target in test [3] is Inhibitor of nuclear factor kappa-B kinase subunit epsilon (Homo sapiens, UniProt Q14164). The experiment in a line: Navigating the Kinome. Panel member name: IKBKE.
Chain of Inhibitor of nuclear factor kappa-B kinase subunit epsilon (Q14164 whole entry): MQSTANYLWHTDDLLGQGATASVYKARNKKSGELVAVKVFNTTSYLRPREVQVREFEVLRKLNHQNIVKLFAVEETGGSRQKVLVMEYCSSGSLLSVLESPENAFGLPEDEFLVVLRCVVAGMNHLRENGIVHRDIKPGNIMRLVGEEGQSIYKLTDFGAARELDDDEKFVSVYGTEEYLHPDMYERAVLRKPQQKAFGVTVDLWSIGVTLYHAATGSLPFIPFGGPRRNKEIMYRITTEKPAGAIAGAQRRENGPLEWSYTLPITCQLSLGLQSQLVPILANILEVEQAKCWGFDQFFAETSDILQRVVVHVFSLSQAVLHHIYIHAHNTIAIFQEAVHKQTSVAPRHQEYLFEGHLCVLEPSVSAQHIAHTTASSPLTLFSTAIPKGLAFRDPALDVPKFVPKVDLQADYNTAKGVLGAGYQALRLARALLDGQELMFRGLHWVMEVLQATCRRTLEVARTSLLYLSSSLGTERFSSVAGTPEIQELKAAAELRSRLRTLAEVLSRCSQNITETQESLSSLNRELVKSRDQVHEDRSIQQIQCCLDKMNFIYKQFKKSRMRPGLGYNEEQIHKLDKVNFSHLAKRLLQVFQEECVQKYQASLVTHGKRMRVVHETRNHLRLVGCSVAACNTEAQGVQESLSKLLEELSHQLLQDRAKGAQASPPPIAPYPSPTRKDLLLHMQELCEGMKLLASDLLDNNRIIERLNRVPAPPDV
The target of test [4] is Glycogen synthase kinase-3 beta (Homo sapiens, UniProt P49841).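 Also: value comes from a broad kinome profiling panel, with GSK3B as the panel member.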
Chain of Glycogen synthase kinase-3 beta (P49841 whole entry): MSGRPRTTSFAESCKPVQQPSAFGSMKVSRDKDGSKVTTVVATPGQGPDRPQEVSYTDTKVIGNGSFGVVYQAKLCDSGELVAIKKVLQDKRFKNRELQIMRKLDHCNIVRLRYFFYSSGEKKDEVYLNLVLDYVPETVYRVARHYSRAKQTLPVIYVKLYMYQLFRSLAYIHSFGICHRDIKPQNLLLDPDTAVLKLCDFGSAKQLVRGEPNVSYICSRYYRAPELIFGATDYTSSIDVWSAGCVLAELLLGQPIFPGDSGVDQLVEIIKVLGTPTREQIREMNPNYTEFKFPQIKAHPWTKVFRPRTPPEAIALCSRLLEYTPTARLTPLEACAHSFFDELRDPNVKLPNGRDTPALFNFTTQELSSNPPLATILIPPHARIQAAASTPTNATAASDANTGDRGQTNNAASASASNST
Test [5] has as its target Rho-associated protein kinase 1 (Homo sapiens, UniProt Q13464).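 Also: measured within a broad kinome-wide panel profiling many kinases.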
Test [6] deals with T2, Aurora kinase A (Homo sapiens, UniProt O14965).
T2 sequence (O14965 whole entry): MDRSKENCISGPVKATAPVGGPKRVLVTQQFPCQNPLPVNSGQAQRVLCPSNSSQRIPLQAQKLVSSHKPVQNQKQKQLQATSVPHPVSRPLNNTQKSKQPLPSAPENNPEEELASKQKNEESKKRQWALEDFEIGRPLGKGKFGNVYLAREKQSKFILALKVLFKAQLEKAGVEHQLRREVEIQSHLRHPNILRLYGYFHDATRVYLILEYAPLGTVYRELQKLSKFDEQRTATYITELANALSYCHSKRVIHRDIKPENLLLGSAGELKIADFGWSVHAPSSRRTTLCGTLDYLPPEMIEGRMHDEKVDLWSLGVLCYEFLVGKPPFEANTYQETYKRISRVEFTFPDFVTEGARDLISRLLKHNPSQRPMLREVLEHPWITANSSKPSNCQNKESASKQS

Active and inactive are the calls of the source.

Chain of Dual specificity mitogen-activated protein kinase kinase 1 (Q02750 whole entry): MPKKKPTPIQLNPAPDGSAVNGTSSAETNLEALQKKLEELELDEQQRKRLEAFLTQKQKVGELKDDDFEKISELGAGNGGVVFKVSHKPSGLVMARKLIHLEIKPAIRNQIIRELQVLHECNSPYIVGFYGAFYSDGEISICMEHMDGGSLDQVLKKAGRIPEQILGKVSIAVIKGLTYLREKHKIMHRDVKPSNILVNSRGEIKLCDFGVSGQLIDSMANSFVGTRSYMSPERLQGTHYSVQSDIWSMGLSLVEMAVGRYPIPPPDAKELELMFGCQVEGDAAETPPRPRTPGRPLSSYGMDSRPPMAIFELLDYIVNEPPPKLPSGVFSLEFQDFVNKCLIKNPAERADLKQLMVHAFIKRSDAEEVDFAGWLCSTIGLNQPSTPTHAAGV
Chain of Rho-associated protein kinase 1 (Q13464 whole entry): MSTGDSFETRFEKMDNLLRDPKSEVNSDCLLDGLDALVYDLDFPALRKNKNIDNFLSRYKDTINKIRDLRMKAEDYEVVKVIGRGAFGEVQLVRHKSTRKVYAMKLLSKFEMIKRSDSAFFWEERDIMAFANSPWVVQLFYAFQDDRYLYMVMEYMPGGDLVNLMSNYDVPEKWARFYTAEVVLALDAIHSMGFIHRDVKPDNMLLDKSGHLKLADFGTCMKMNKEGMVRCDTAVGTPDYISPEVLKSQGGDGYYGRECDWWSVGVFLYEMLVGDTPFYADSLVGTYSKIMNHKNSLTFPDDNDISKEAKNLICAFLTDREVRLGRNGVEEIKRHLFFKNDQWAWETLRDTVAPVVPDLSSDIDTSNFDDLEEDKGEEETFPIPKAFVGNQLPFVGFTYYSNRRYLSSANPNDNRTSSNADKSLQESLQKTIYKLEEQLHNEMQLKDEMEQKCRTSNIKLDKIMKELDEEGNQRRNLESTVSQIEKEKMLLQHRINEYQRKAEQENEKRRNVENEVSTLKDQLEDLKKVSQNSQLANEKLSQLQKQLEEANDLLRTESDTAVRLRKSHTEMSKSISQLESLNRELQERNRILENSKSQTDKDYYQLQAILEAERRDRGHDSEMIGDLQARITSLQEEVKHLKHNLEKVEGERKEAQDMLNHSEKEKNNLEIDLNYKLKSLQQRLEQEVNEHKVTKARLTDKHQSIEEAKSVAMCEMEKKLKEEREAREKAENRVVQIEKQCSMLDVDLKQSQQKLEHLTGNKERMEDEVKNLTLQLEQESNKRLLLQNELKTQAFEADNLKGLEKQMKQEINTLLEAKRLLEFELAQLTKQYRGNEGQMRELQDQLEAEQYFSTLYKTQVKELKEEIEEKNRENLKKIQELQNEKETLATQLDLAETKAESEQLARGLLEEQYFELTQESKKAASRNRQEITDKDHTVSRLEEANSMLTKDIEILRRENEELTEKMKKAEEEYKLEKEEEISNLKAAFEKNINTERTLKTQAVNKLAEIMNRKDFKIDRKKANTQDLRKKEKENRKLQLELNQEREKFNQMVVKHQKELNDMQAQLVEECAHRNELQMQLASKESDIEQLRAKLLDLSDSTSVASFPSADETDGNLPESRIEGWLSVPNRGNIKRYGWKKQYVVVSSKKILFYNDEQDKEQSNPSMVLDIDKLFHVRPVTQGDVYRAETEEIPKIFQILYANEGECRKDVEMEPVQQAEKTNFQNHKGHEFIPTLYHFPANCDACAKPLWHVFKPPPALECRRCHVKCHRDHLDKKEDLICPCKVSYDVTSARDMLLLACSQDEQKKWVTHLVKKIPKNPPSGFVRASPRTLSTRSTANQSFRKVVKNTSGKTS

What is called IC50 is the concentration needed to halve the response being measured. Turning to `Cc1ccnc2ccc(-c3nc4ccccc4o3)cc12`, in test [1], the concentration for half-maximal inhibition (IC50) was 2.2 µM (active).
What is called Ki is the dissociation constant of the complex between target and ligand, obtained from inhibition or displacement. With `O=C(NCCc1cccs1)N1CC=C(c2c[nH]c3ncccc23)CC1`, the Ki was 2.51 µM (active) in test [2]; > 3.16 µM (inactive) in test [3]; 3.16 µM (active) in test [4]; 63.1 nM (active) in test [5]; > 1.58 µM (inactive) in test [6].
